One assay concerns the target RBP4-TTR interaction (Homo sapiens (Human), UniProt P02753). Nature of the assay: HTRF (TR-FRET) assay for antagonists of retinol-induced RBP4-TTR interaction. It counts as biochemical. The note with it: in the presence of 1 μM retinol. The source says:
TR-FRET Assay for Retinol-Induced RBP4-TTR Interaction
Binding of a desired RBP4 antagonist displaces retinol and induces hindrance for RBP4-TTR interaction resulting in the decreased FRET signal (FIG. 7). Bacterially expressed MBP-RBP4 and untagged TTR were used in this assay. For the use in the TR-FRET assay, the maltose binding protein (MBP)-tagged human RBP4 fragment (amino acids 19-201) was expressed in the Gold(DE3)pLysS E. coli strain (Stratagene) using the pMAL-c4x vector. Following cell lysis, recombinant RBP4 was purified from the soluble fraction using the ACTA FPLC system (GE Healthcare) equipped with the 5-ml the MBP Trap HP column. Human untagged TTR was purchased from Calbiochem. Untagged TTR was labeled directly with Eu^3+ Cryptate-NHS using the HTRF Cryptate Labeling kit from CisBio following the manufacturer's recommendations. HTRF assay was performed in white low volume 384 well plates (Greiner-Bio) in a final assay volume of 16 μl per well. […] Titration of test compounds in this assay was conducted in the presence of 1 μM retinol. […] TR-FRET signal was measured in the SpectraMax M5e Multimode Plate Reader (Molecular Device). […] The TR-FRET signal was expressed as the ratio of fluorescence intensity: Flu665/Flu620×10,000.
(§1) The compounds listed below were tested in two in vitro assays, RBP4 binding (SPA) and retinol-dependent RBP4-TTR interaction (HTRF) (Table 1).

In a further assay the target is human RBP4 (Homo sapiens (Human), UniProt P02753). The assay can be described thus: SPA binding assay for RBP4 (scintillation proximity, 3H-retinol displacement). The conditions noted are these: 10 nM 3H-retinol, 50 nM biotinylated RBP4. The protocol:
Scintillation Proximity RBP4 Binding Assay
Untagged human RBP4 purified from the urine of tubular proteinuria patients was purchased from Fitzgerald Industries International. It was biotinylated using the EZ-Link Sulfo-NHS-LC-Biotinylation kit from Pierce following the manufacturer's recommendations. […] Nonspecific binding was determined in the presence of 20 μM of unlabeled retinol. The reaction mix was assembled in the dark under dim red light. The plates were sealed with clear tape (TopSeal-A: 96-well microplate, PerkinElmer), wrapped in the aluminum foil, and allowed to equilibrate 6 hours at room temperature followed by overnight incubation at +4° C. Radiocounts were measured using a TopCount NXT counter (Packard Instrument Company).
as §1

In another assay the target is PPARγ (Homo sapiens (Human), UniProt P37231). Nature of the assay: PPARγ agonist assay (HTRF, PPARγ-NCOR interaction). It counts as biochemical. The conditions noted are these: read-out: PPAR γ assay (HTRF) for agonists of this nuclear receptor - IC50. The source says:
Significant safety issues are associated with the clinical use of PPARγ agonists (increased risk of death, myocardial infarction, stroke, congestive heart failure, hepatotoxicity, peripheral edema, weight gain and carcinogenicity^1-4). We wanted to characterize the compounds we identified in a pilot screen as potential PPARγ agonists. The PPARγ assay is based on agonist-sensitive interaction of the GST-tagged ligand-binding domain (LRD) of the nuclear receptor PPARγ with the biotinylated corepressor NCOR peptide (FIG. 8).
Assay reactions are performed in a final volume of 16 ul.
In well of the 384-well assay plate, mix 6 ul of PPARγ solution, 4 ul of NCOR2 solution and 4 μl of Rosi solution. Test compounds diluted from DMSO stocks to 4× assay concentration in 1×HTRF, 100 mM KF buffer may be dispensed to well instead of Rosi. Negative control wells contained DMSO solvent alone; positive control well contained […]. […] Two μl of detection mix was added per well. […] The plate was incubated for 16 hrs at 4° C.
HTRF signal was measured in the SpectraMax M5e Multimode Plate Reader (Molecular Device). Fluorescence was excited at 337 nm. […] The signal was expressed as the ratio of fluorescence intensity: Flu668/Flu620×10,000. […]

Several values for one entry are separate records, joined by “and”; a condition that tells them apart may be missing. Equal values may be shown once.

Sequence of PPARγ (P37231 204-505): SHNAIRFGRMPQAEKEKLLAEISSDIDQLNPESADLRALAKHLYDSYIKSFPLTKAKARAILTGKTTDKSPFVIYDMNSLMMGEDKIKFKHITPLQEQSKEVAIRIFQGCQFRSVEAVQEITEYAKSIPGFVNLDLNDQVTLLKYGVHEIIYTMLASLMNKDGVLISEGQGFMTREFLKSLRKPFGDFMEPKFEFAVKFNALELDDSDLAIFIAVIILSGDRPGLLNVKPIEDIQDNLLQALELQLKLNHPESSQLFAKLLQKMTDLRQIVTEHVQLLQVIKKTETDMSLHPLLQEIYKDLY

Consider `O=C(c1cn2cccnc2n1)N1C[C@H]2C[C@@H](c3ccccc3OC(F)(F)F)C[C@H]2C1` [Compound 9g], for which the figures for the half-maximal inhibitory concentration (IC50) at RBP4-TTR interaction and at human RBP4 were 741 nM and 78.4 nM, respectively.

As to `Cc1cc(C)n2nc(C(=O)N3C[C@H]4C[C@@H](c5ccccc5C(F)(F)F)C[C@H]4C3)nc2n1` [Compound 7f], the concentration for half-maximal inhibition (IC50) was greater than 100000 nM on PPARγ; 4580 nM and 7440 nM on RBP4-TTR interaction; 108 nM at human RBP4.

Take `CC(=O)OCCc1cnc2nc(C(=O)N3C[C@H]4C[C@@H](c5ccccc5C(F)(F)F)C[C@H]4C3)nn2c1` [Compound 7l]: the figures for the half-maximal inhibitory concentration (IC50) on PPARγ, on RBP4-TTR interaction and at human RBP4 were greater than 100000 nM, 230 nM and 23 nM, respectively.

As for `O=C(c1nc2ncccn2n1)N1C[C@H]2C[C@@H](c3ccccc3C(F)(F)C(F)(F)F)C[C@H]2C1` [Compound 9a], at human RBP4, the half-inhibitory concentration (IC50) stood at 27.3 nM.

Take `O=C(c1nnc2ncccn12)N1C[C@H]2C[C@@H](c3ccccc3C(F)(F)F)C[C@H]2C1` [Compound 7b]: the figures for the IC50 on PPARγ, on RBP4-TTR interaction and at human RBP4 were greater than 100000 nM, 661 nM and 46 nM, respectively.

On to `O=C(c1c[nH]c2cnccc12)N1C[C@H]2C[C@@H](c3ccccc3C(F)(F)F)C[C@H]2C1` [Compound 8a], for which the IC50 at RBP4-TTR interaction was greater than 30000 nM.

With `NCCc1cnc2nc(C(=O)N3C[C@H]4C[C@@H](c5ccccc5C(F)(F)F)C[C@H]4C3)nn2c1` [Compound 7m], the IC50 was greater than 100000 nM at PPARγ, 1470 nM at RBP4-TTR interaction and 247 nM at human RBP4.

With `Cc1cnc2nc(C(=O)N3C[C@H]4C[C@@H](c5ccccc5OC(F)(F)F)C[C@H]4C3)nn2c1` [Compound 9f], the 50% inhibitory concentration (IC50) at RBP4-TTR interaction came out at 450 nM; on human RBP4, 57.1 nM.

On to `O=C(c1nc2ncccn2n1)N1C[C@H]2C[C@@H](c3ccccc3OC(F)(F)F)C[C@H]2C1` [Compound 9j], for which the IC50 on RBP4-TTR interaction is 551 nM and 473 nM.

Consider `O=C(c1nc2ncccn2n1)N1C[C@H]2C[C@@H](c3cc(F)ccc3C(F)(F)F)C[C@H]2C1` [Compound 7h], for which the IC50 at PPARγ is greater than 100000 nM; on RBP4-TTR interaction, 410 nM; on human RBP4, 38 nM.

Regarding `O=C(c1nc2nc(C(F)(F)F)ccn2n1)N1C[C@H]2C[C@@H](c3ccccc3OC(F)(F)F)C[C@H]2C1` [Compound 9i], the IC50 was 20400 nM on RBP4-TTR interaction and 443 nM at human RBP4.

With `Cc1ccccc1[C@@H]1C[C@@H]2CN(C(=O)c3nc4ncccn4n3)C[C@@H]2C1` [Compound 10a], at human RBP4, the concentration for half-maximal inhibition (IC50) turned out to be 14800 nM.

As to `O=C(c1nc2ncc(Br)cn2n1)N1C[C@H]2C[C@@H](c3ccccc3C(F)(F)F)C[C@H]2C1` [Compound 7c], the figures for the IC50 on PPARγ, on RBP4-TTR interaction and on human RBP4 were greater than 100000 nM, 949 nM and 39 nM, respectively.

For the molecule `Cc1ccn2cc(C(=O)N3C[C@H]4C[C@@H](c5ccccc5OC(F)(F)F)C[C@H]4C3)nc2c1` [Compound 9h], the half-maximal inhibitory concentration (IC50) at RBP4-TTR interaction was 2480 nM; on human RBP4, 104 nM.

Regarding `O=C(c1nc2ncccn2n1)N1C[C@H]2C[C@@H](c3ccccc3-c3ccccc3)C[C@H]2C1` [Compound 10d], the IC50 at RBP4-TTR interaction was 300 nM.

For the molecule `O=C(c1nc2ncc(CCO)cn2n1)N1C[C@H]2C[C@@H](c3cc(F)ccc3C(F)(F)F)C[C@H]2C1` [Compound 7i], the IC50 on RBP4-TTR interaction is 494 nM.

Consider `Cc1ccn2c(C(=O)N3C[C@H]4C[C@@H](c5ccccc5OC(F)(F)F)C[C@H]4C3)nnc2n1` [Compound 9c], for which the figures for the 50% inhibitory concentration (IC50) at RBP4-TTR interaction and on human RBP4 were 1130 nM and 82.9 nM, respectively.

On to `O=C(c1c[nH]c2ccncc12)N1C[C@H]2C[C@@H](c3ccccc3C(F)(F)F)C[C@H]2C1` [Compound 8b], for which the IC50 on RBP4-TTR interaction was greater than 30000 nM.

As for `CC(C)c1ccccc1[C@@H]1C[C@@H]2CN(C(=O)c3nc4ncccn4n3)C[C@@H]2C1` [Compound 10c], at RBP4-TTR interaction, the half-maximal inhibitory concentration (IC50) was 40.8 nM.

As for `O=C(c1cnc2ncccn12)N1C[C@H]2C[C@@H](c3ccccc3OC(F)(F)F)C[C@H]2C1` [Compound 9d], the IC50 on RBP4-TTR interaction was 1450 nM; on human RBP4 it was 88.1 nM.
